Values joined by “and” are separate entries in the source; they are usually repeats but may differ in a detail not shown here. Identical values can stand only once.
Columns and labels:
CYP17A1 [1] = molecular target: T1, CYP17A1 (Homo sapiens, UniProt P05093); assay: CYP17A1 17α-hydroxylase activity assay in NCI-H295R cells ([14C]-progesterone, TLC); format: cell-based; settings: 4 h, DMSO = 100, read-out: CYP17A1 Hydroxylase activity, Mean (percentage of activity remaining relative to the control)
T1 construct: immortalised human adrenal cells expressing CYP17A1 and other steroidogenic enzymes; endogenous in cells; host or cells: NCI-H295R (human adrenal cells)
T1 sequence (P05093 1-508): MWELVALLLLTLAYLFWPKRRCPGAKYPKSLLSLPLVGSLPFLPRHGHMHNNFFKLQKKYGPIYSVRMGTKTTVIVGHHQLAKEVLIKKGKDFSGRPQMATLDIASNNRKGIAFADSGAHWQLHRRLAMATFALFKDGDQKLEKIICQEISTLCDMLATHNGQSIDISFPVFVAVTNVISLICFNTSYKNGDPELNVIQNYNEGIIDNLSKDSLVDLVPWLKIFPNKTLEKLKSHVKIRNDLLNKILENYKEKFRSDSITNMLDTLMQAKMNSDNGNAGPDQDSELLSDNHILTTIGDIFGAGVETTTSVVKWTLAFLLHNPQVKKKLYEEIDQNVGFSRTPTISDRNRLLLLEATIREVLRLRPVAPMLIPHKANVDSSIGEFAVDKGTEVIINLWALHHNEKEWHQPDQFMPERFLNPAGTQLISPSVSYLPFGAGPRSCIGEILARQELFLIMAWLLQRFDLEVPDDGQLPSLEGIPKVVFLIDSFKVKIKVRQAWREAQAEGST
Procedure: (§1) Human adrenal NCI-H295R cells are an established model for assay of CYP17A1 activities. The NCI-H295R cells were seeded in 12-well plates at 500 000 cells per well and incubated overnight. On the following day, 10 µM of test compounds were added to the wells with fresh medium and incubated for 4 h. Abiraterone was used as a reference, and DMSO was included as a control. For assessing CYP17A1 hydroxylase activity, cells were treated with [^14C]-Progesterone at 10 000 cpm/1 µM per well. Trilostane was added prior to the test compounds and substrate to inhibit 3β-hydroxysteroid dehydrogenase activity so that a clean assay of only CYP17A1 activity could be performed[20]^,[27]^,[28]. Radiolabeled steroids were extracted from the media using a mixture of ethyl acetate and isooctane (1:1 v/v) and separated by Thin Layer Chromatography (TLC) on silica gel-coated aluminium plates (Supelco® Analytics, Sigma-Aldrich Chemie GmbH, Taufkirchen, Germany). TLC spots were visualised on a phosphor screen and detected by autoradiography using a Typhoon™ FLA-7000 PhosphorImager (GE Healthcare, Uppsala, Sweden). Radioactivity was quantified with ImageQuant™ TL analysis software (GE Healthcare Europe GmbH, Freiburg, Germany), and enzyme activity was expressed as the percentage of radioactivity incorporated into the product relative to the total radioactivity. For CYP17A1 lyase activity, cells were exposed to 50 000 cpm/1 µM [21-^3H]-17α-hydroxypregnenolone per well under similar conditions. The tritiated water release assay was used to measure the conversion of 17OH-Pregnenolone to DHEA. Steroids in the media were precipitated using a 5% activated charcoal/0.5% dextran solution. Enzyme activity was evaluated based on the water-soluble tritiated by-product formed in equimolar amounts with DHEA, with radioactivity in the aqueous phase quantified by liquid scintillation counting (MicroBeta2® Plate Counter, PerkinElmer Inc., Waltham, MA, USA). Percent inhibition was calculated relative to control samples.

CYP17A1 [2] = molecular target: T1, CYP17A1; assay: CYP17A1 17,20-lyase activity assay in NCI-H295R cells (tritiated water release); format: cell-based; settings: 4 h, DMSO = 100, read-out: CYP17A1 Lyase activity, Mean (percentage of activity remaining relative to the control)
Procedure: as §1

[3] = test system: adrenal steroidogenesis in NCI-H295R cells; assay: Steroid profiling by LC-MS in NCI-H295R cells; format: cell-based, human; settings: for Androsterone, Mean / Testosterone, Mean / Progesterone, Mean / Androstendione, Mean / 17a-Hydroxyprogesterone, Mean / DHEA, Mean / 11-Deoxycortisol, Mean / 11-Deoxycorticosterone, Mean / Pregnenolone, Mean / Cortisone, Mean / DHEA-S, Mean / Dihydrotestosterone, Mean: compounds at 10 µM; for Androsterone, Mean / Testosterone, Mean / Progesterone, Mean / Androstendione, Mean / 17a-Hydroxyprogesterone, Mean / DHEA, Mean / 11-Deoxycortisol, Mean / 11-Deoxycorticosterone, Mean / Pregnenolone, Mean: 1 µM pregnenolone; for Androsterone, Mean / Cortisone, Mean / DHEA-S, Mean / Dihydrotestosterone, Mean: DMSO 0; for Testosterone, Mean: DMSO 0.4785; for Progesterone, Mean: DMSO 4.814; for Androstendione, Mean: DMSO 7.577; for 17a-Hydroxyprogesterone, Mean: DMSO 9.967; for DHEA, Mean: DMSO 15.119; for 11-Deoxycortisol, Mean: DMSO 26.594; for 11-Deoxycorticosterone, Mean: DMSO 28.1555; for Pregnenolone, Mean: DMSO 2043.56; for Cortisone, Mean / DHEA-S, Mean / Dihydrotestosterone, Mean: not detected within the experimental timeframe
Procedure: (§2) Steroid quantification was performed using Liquid Chromatography–Mass Spectrometry (LC-MS), following established protocols to study effect of compounds on adrenal steroidogenesis. Human adrenal NCI-H295R cells were seeded in 12-well plates at 500 000 cells per well and treated with fresh growth medium containing the test compounds for 4 h. Subsequently, 1 µM pregnenolone was added and incubated for an additional 4 h. Steroids were extracted from 500 µL aliquots of cell media, separated, and quantified according to the referenced methodology.

CYP17A1 [4] = molecular target: T1, CYP17A1; assay: CYP17A1 activity calculated as ratios of steroid products to substrates (LC-MS); format: cell-based; settings: normalised to DMSO-treated cells (100%), NCI-H295R
Procedure: as §2
To provide deeper insights into CYP17A1 inhibition, the enzyme activity was calculated using ratios of steroid products to substrates, focusing on dual activities of CYP17A1 (Figure 4(B)).

[5] = Alamar blue (resazurin) cell viability, RWPE-1; format: cell-based; settings: human, RWPE-1 cells, of the control
Procedure: (§3) LNCaP and RWPE-1 cells were plated in 96-well plates at 10 000 cells per well and incubated overnight at 37 °C with 5% CO2. VCaP cells were plated at 12 000 cells per well under the same conditions. After 24 h, the medium was replaced with fresh medium containing the compounds or abiraterone at a final concentration of 10 µM. Cells were incubated for an additional 24 and 48 h. Cell viability was measured using the Alamar Blue assay. Post-incubation, 0.05 mg/mL Alamar Blue solution in phosphate-buffered saline (PBS) was added to each well. The plates were incubated in the dark at 37 °C for 4 h, and fluorescence was measured at an excitation wavelength of 550 nm and an emission wavelength of 590 nm. Cell viability was calculated relative to control sample treated with DMSO. All experiments were conducted in triplicate.

VCaP cells = assay: Alamar blue (resazurin) cell viability, VCaP; format: cell-based, human; settings: for Cytotoxic effect on VCaP cells (in words): 10 µM, 24 and 48 h
Procedure: as §3

LNCaP cells = assay: Alamar blue (resazurin) cell viability, LNCaP; format: cell-based, human; settings: 10 µM, 24 and 48 h
Procedure: as §3

DU-145 cells = assay: Scratch (wound healing) assay; format: cell-based, human; settings: DU-145, 10 µM; for Wound area, Mean (area remaining open): 24 h, DMSO 170.5; for Effect on cell migration (in words): after 24 h
Procedure: Human prostate cancer DU-145 cells show strong cell proliferation and therefore, are an established model for assay of antiproliferative effects of test compounds. DU-145 cells were plated in 24-well plates at 50 000 cells per well and grown until they reached 85% confluence. To inhibit cell proliferation, cells were treated with 5 µg/mL mitomycin for 2 h. A wound was created using a 10 µL pipette tip. The cells were then exposed to drugs at a concentration of 10 µM, while control wells received DMSO. Wound closure was observed and photographed using an optical microscope after 24 h. Images were analysed using ImageJ software (version 1.54j).

CYP17A1 [6] = molecular target: T1, CYP17A1; assay: CYP17A1 17,20-lyase activity assay in NCI-H295R cells (tritiated water release); format: cell-based; settings: dose-response, read-out: IC50, inhibition of 17,20-lyase activity

SMILES | remaining activity at 10 µM (CYP17A1 [1]) [%] | remaining activity at 10 µM (CYP17A1 [2]) [%] | Androsterone, Mean [3] [nmol/L] | Testosterone, Mean [3] [nmol/L] | Progesterone, Mean [3] [nmol/L] | Androstendione, Mean [3] [nmol/L] | 17a-Hydroxyprogesterone, Mean [3] [nmol/L] | DHEA, Mean [3] | 11-Deoxycortisol, Mean [3] [nmol/L] | 11-Deoxycorticosterone, Mean [3] [nmol/L] | Pregnenolone, Mean [3] [nmol/L] | Cortisone, Mean [3] [nmol/L] | DHEA-S, Mean [3] [nmol/L] | Dihydrotestosterone, Mean [3] [nmol/L] | 17α-Hydroxylase activity (ratios of steroid products to substrates) (CYP17A1 [4]) [%] | viability at 48 h, 10 µM [5] [%] | Cytotoxic effect on VCaP cells (in words) (VCaP cells) | Cytotoxic effect on LNCaP cells (in words) (LNCaP cells) | Wound area, Mean (area remaining open) (DU-145 cells) [Pixels^2] | Effect on cell migration (in words) (DU-145 cells) | also measured
C[C@]12CC[C@H](O)CC1=CC[C@@H]1[C@@H]2CC[C@]2(C)C(c3cccnc3)=CC[C@@H]12 [ABT, abiraterone, reference compound] | 14 | 24 | 0 | 0.5005 | 3.809 | 1.5465 | 1.202 | 2.775 nmol/L | 3.585 | 2.6135 | 2279.668 | 0 | 0 | 0 | 15.2 | 66 | notable reduction in cell viability | notable reduction in cell viability | 935 | – | Combined 17α-hydroxylase and 17,20-lyase activity (ratios of steroid products to substrates) (CYP17A1 [4]): ~16.3%; viability at 24 h, 10 µM ([5]; 24 h): 84%
N#Cc1c(-c2ccncc2)cc(-c2ccc3[nH]ccc3c2)nc1N [Compound 5, 2-Amino-6-(1H-indol-5-yl)-[4,4′-bipyridine]-3-carbonitrile] | 20 | 39.7 | 0.009 | 0.5215 | 39.9815 | 1.4095 | 1.3865 | 0.748 nmol/L | 4.0415 | 5.503 | 2578.994 | 0 | 0 | 0 | 1.7 | – | – | marked reduction in viability | 1916 | less pronounced effect comparable to that exerted by abiraterone | viability at 10 µM (VCaP cells; Homo sapiens, VCaP, 24 h): < 50%; IC50 (CYP17A1 [6]): 25 nM
N#Cc1c(-c2ccncc2)cc(-c2ccc3[nH]ccc3c2)c(C#N)c1N [Compound 11, 2-Amino-4-(1H-indol-5-yl)-6-(pyridin-4-yl)isophthalonitrile] | 10 | 49.2 | 1.176 | 0.4775 | 67.3265 | 1.3725 | 1.3575 | 1.36 nmol/L and 1.3585 nmol/L | 3.942 | 3.8565 | 2465.505 | 0 | 0 | 0 | 1 | – | did not exhibit high cytotoxic effects | did not exhibit high cytotoxic effects | 8703 | significant inhibition of cell migration | Reduction of DHEA level ([3]; vs DMSO control): 11 fold; IC50 (CYP17A1 [6]): 4 nM
c1cncc(-c2cccc(-c3ccc4[nH]ccc4c3)c2)c1 [Compound 12, 5-(3-(Pyridin-3-yl)phenyl)-1H-indole] | 46 | 48.7 | – | – | – | – | – | – | – | – | – | – | – | – | – | 85 | – | – | – | – | –

Source: article PMC11834790, “Pyridine indole hybrids as novel potent CYP17A1 inhibitors” (Journal of Enzyme Inhibition and Medicinal Chemistry, 2025)
